Experiment [1] is described as follows: Inhibition of human sGC expressed in HUVEC cells assessed as reduction in GMP level incubated for 24 hrs in presence of NPS by ELISA. In kind it is cell-based. A general note: ELISA stands for enzyme-linked immunosorbent assay.
Experiment [2] is described as follows: Inhibition of human sGC expressed in HUVEC cells assessed as reduction in GMP level incubated for 2 hrs by ELISA. The format is cell-based.
Experiment [3] is described as follows: Inhibition of bovine lung sGC assessed as reduction in GMP level incubated for 2 hrs in presence of NPS by ELISA. In kind it is tissue-based, Bos taurus.
The subject of experiment [4] is HUVEC. The experiment can be described thus: Selectivity ratio of IC50 for inhibition of human sGC expressed in HUVEC cells assessed as reduction in GMP level incubated for 2 hrs to human sGC expressed in HUVEC cells assessed as reduction in GMP level incubated for 2 hrs in presence of NPS. In kind it is cell-based.
The subject of experiment [5] is HUVEC. The experiment can be described thus: Inhibition of human sGC expressed in HUVEC cells assessed as reduction in GMP level at 2 uM in presence of NPS by ELISA relative to control. In kind it is cell-based.
Experiment [6] relates to HUVEC. Briefly: Selectivity ratio of inhibition of human sGC expressed in HUVEC cells assessed as reduction in GMP level at 2 uM in presence of NPS to inhibition of human sGC expressed in HUVEC cells assessed as reduction in GMP level at 2 uM in presence of NPS/BAY-412272. In kind it is cell-based.
Experiment [7] relates to HUVEC. The experiment can be described thus: Selectivity ratio of inhibition of human sGC expressed in HUVEC cells assessed as reduction in GMP level at 20 uM in presence of NPS to inhibition of human sGC expressed in HUVEC cells assessed as reduction in GMP level at 20 uM in presence of NPS/BAY-412272. In kind it is cell-based.
A short description of experiment [8]: Inhibition of bovine lung sGC assessed as reduction in GMP level incubated for 2 to 12 hrs in presence of NPS by ELISA. The format is tissue-based, Bos taurus.
The subject of experiment [9] is HEPC-CB.1. The experiment can be described thus: Inhibition of angiogenesis in HEPC-CB1 cells assessed as decrease in total length of pseudovessels at 10 uM after 13 hrs by fluorescence inverted microscopic analysis. In kind it is functional, cell-based. The following applies: Homo sapiens.
The subject of experiment [10] is HEPC-CB.1. Briefly: Inhibition of angiogenesis in HEPC-CB1 cells assessed as decrease in number of closed structures at 10 uM after 13 hrs by fluorescence inverted microscopic analysis. In kind it is functional, cell-based. The following applies: Homo sapiens.
Experiment [11] has as its system HEPC-CB.1. Briefly: Inhibition of angiogenesis in HEPC-CB1 cells assessed as decrease in pseudovessels at 10 uM after 13 hrs by fluorescence inverted microscopic analysis. In kind it is functional, cell-based. The conditions noted are these: Homo sapiens.
Experiment [12] can be described thus: Inhibition of human sGC expressed in HUVEC cells assessed as reduction in GMP level incubated for 48 hrs in presence of NPS by ELISA. The format is cell-based.
The nature of experiment [13]: Inhibition of human sGC expressed in HUVEC cells assessed as reduction in GMP level incubated for 48 hrs by ELISA. In kind it is cell-based.
Experiment [14] concerns HUVEC. Briefly: Inhibition of full length human sGC expressed in HUVEC cells assessed as increase in oxidation of heme at 20 uM after 2 hrs by spectroscopic analysis. In kind it is cell-based.
Experiment [15] is described as follows: Inhibition of bovine lung sGC assessed as reduction in GMP level incubated for 48 hrs in presence of NPS by ELISA. In kind it is tissue-based, Bos taurus.
Experiment [16] in a line: Inhibition of angiogenesis in HEPC-CB1 cells assessed as decrease in total length of pseudovessels at 10 to 20 uM after 13 hrs by fluorescence inverted microscopic analysis. The following applies: dose 10-20 µM. The format is functional, Homo sapiens, HEPC-CB.1.
Experiment [17] can be described thus: Inhibition of angiogenesis in HEPC-CB1 cells assessed as decrease in number of closed structures at 10 to 20 uM after 13 hrs by fluorescence inverted microscopic analysis. The format is functional, Homo sapiens, HEPC-CB.1. The conditions noted are these: dose 10-20 µM.
A short description of experiment [18]: Inhibition of angiogenesis in HEPC-CB1 cells assessed as decrease in pseudovessels at 10 to 20 uM after 13 hrs by fluorescence inverted microscopic analysis. In kind it is functional, Homo sapiens, HEPC-CB.1. The conditions noted are these: dose 10-20 µM.
Experiment [19] in a line: Inhibition of human sGC expressed in HUVEC cells assessed as reduction in GMP level incubated for 24 hrs by ELISA. In kind it is cell-based.
Experiment [20] in a line: Inhibition of bovine lung sGC assessed as reduction in GMP level incubated for 2 hrs in presence of NPS/BAY-412272 by ELISA. The format is tissue-based, Bos taurus.
Experiment [21] is described as follows: Inhibition of bovine lung sGC assessed as reduction in GMP level incubated for 2 hrs in presence of BAY-412272 by ELISA. The format is tissue-based, Bos taurus.
For experiment [22], the species on record is Bos taurus. Briefly: Selectivity ratio of IC50 for inhibition of bovine lung sGC assessed as reduction in GMP level in presence of NPS/BAY-412272 to IC50 for inhibition of bovine lung sGC assessed as reduction in GMP level in presence of NPS. The format is tissue-based.
In experiment [23] the test system is HUVEC. Briefly: Inhibition of human sGC expressed in HUVEC cells assessed as reduction in GMP level at 20 uM in presence of NPS/BAY-412272 by ELISA relative to control. The format is cell-based.
A short description of experiment [24]: Inhibition of rat small intestine GST using CDNB as substrate by spectrophotometric method. In kind it is tissue-based.
The target of experiment [25] is T1, Dopamine beta-hydroxylase (Homo sapiens, UniProt P09172).
T1 sequence (P09172 whole entry): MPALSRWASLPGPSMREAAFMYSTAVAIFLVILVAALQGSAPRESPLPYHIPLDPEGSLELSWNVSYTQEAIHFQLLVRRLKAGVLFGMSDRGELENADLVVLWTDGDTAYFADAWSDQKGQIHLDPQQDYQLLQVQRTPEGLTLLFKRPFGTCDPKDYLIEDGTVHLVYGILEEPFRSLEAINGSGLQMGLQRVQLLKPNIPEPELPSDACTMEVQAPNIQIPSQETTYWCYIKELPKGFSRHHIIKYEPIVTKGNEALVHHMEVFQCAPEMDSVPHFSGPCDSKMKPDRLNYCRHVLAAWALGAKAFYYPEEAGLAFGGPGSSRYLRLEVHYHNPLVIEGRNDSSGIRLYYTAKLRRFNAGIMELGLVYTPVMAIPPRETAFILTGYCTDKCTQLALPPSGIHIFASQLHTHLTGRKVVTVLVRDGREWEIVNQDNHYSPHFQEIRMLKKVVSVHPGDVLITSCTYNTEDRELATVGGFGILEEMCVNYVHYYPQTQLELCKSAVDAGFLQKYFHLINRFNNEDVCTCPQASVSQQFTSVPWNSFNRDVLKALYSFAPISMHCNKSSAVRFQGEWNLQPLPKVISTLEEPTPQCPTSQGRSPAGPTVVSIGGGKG
The experiment can be described thus: Inhibition of Dopamine beta-hydroxylase (unknown origin) incubated for 10 mins.

Experiment [26] deals with HEPC-CB.1. Briefly: Inhibition of angiogenesis in HEPC-CB1 cells assessed as decrease in total length of pseudovessels at 20 uM after 13 hrs by fluorescence inverted microscopic analysis. In kind it is functional, cell-based. The conditions noted are these: Homo sapiens.
The test system of experiment [27] is HEPC-CB.1. Briefly: Inhibition of angiogenesis in HEPC-CB1 cells assessed as decrease in number of closed structures at 20 uM after 13 hrs by fluorescence inverted microscopic analysis. The format is functional, cell-based. The following applies: Homo sapiens.
Experiment [28] relates to HEPC-CB.1. Briefly: Inhibition of angiogenesis in HEPC-CB1 cells assessed as decrease in pseudovessels at 20 uM after 13 hrs by fluorescence inverted microscopic analysis. The following applies: Homo sapiens. The format is functional, cell-based.
Experiment [29] concerns Hepatocyte. The experiment can be described thus: Cytotoxicity against rat hepatocytes assessed as induction intracellular LDH release incubated for 8 to 24 hrs. In kind it is cell-based. A general note: LDH leaks from cells whose membrane has failed.
Experiment [30] in a line: Inhibition of Yersinia pestis FabZ.
Experiment [31] in a line: Inhibition of Francisella tularensis FabZ.

Activity calls are given as the source filed them. No cut-off for these calls is given here.

As usually defined, the IC50 is the point on the concentration scale where inhibition reaches its midpoint. For orientation: inhibition means the share of the control response that was lost under treatment. Consider `COc1c(O)c2c(=O)cc(OC)c3c4c(OC)cc(O)c5c(=O)c(OC)c6c(c(c1[C@H](C(C)=O)[C@](C)(O)C6)c23)c54`, for which the IC50 amounted to 1.5 µM in [1], 800 nM in [2], 1500 nM in [3] and 1500 nM in [8]. For the same molecule, the Ratio IC50 worked out at 2 in experiment [4], 3 in [6] and 2 in experiment [7]. The inhibition in experiment [5] was less than 95%. Also, the inhibition result in experiment [9], in experiment [10] and in experiment [11] was “Active” throughout.

As for `O=C1C(O)=C(O)C(=O)c2c(O)c(Cl)cc(O)c21`, the results for the IC50 in [12], in experiment [13] and in experiment [15] were 13 µM, 12 µM and 3 µM, respectively. Moreover, in [14], the inhibition result was “inactive”.

Turning to `O=C1C(O)=C(O)C(=O)c2c(O)ccc(O)c21`, the IC50 amounted to 10 µM in [12], 12 µM in experiment [13] and 5 µM in experiment [15]. Besides, in [14], the inhibition entry is “inactive”. The “fold change (FC)” value in experiment [16], in [17] and in [18] was 2 in each case.

Regarding `CC(=O)OC1=C(O)C(=O)c2c(OC(C)=O)ccc(OC(C)=O)c2C1=O`, the IC50 in experiment [1] was 28 µM; in [3], 500 nM; in [19], 29 µM; in experiment [20], 1000 nM; in experiment [21] it was 1400 nM; in experiment [8], 200 nM. In addition, the Ratio IC50 in experiment [22] was found to be 2. In addition, the inhibition result in [14] was “Active”.

A word on the Ki: it is a measure of affinity in units of concentration, obtained from inhibition or displacement. Read a high Ki as a looser hold on the target. On to `Cc1cc(O)c2c(=O)c3c(O)cc(O)c4c5c(O)cc(O)c6c(=O)c7c(O)cc(C)c8c1c2c(c34)c(c78)c65` [HYPERICIN], for which the IC50 is 0.7 µM in experiment [1]; 400 nM in experiment [2]; 400 nM in experiment [3]; 350 nM in experiment [20]; 320 nM in experiment [21]; 200 nM in [8]. In [25], this molecule yielded a half-maximal inhibitory concentration (IC50) of 21 µM. Besides, the Ratio IC50 in experiment [4] stood at 2; in experiment [6], 3. The inhibition in experiment [5] is less than 95%. Besides, the inhibition entry in [23], in experiment [9], in experiment [10] and in experiment [11] was “Active” each time. In [24], this molecule showed a Ki of 200 nM.

As for `COc1cc(C)c2c(c1C=O)Oc1c(c(C)c(O)c3c1C(O)OC3=O)OC2=O` (configuration not stated) [STICTIC ACID], the IC50 was 47 µM in [1]; 300 nM in [3]; 44 µM in [19]; 2500 nM in experiment [20]; 2600 nM in experiment [21]; 200 nM in experiment [8]. For the same molecule, the IC50 in experiment [29] is not above 13 µM; in [30], 13 µM; in experiment [31], 13 µM. The Ratio IC50 in experiment [22] amounted to 2. The inhibition result in experiment [14] was “inactive”. Also, the inhibition result in [26], in [27] and in [28] was “Active” each time.

Turning to `COc1cc(C/C=C/c2ccccc2)c(OC)cc1O` [VIOLASTYRENE], the IC50 in experiment [1] came out at 16 µM; in [3] it was 800 nM; in experiment [19], 16 µM; in experiment [20] it was 1800 nM; in experiment [21], 4900 nM; in experiment [8], 800 nM. Also, the Ratio IC50 in experiment [22] is 2. In addition, the inhibition result in [14] was “Active”.

These data come from ChEMBL document CHEMBL4715872, “Soluble Guanylate Cyclase Inhibitors Discovered among Natural Compounds” (J Nat Prod, 2020).
